Measurements reported in patent publication US20150119352A1, “DINUCELOSIDE POLYPHOSPHATES FOR THE TREATMENT OF PAIN” (GlobalAcorn Ltd., priority 2012, published 2015).

Key:
[1] = tested on: rats with Partial Sciatic Nerve Ligation (PSNL); assay: Partial Sciatic Nerve Ligation (PSNL) thermal hyperalgesia test; type: in vivo, rat; conditions: 50 μM
Procedure: FIG. 9. […] Time-course of the effects of 50 μM (100 μL) of AppCH2ppA on PWL.
PSNL, with tight ligation of 33-50% of the sciatic nerve trunk, is a neuropathic pain model. We sub-cutaneously injected 50 μM of AppCH2ppA ([…]) on thermal hyperalgesia in rats with PSNL. […] Results are expressed as mean+/−S.E.M. In this model, the antinociceptive effect is 62%.

[2] = tested on: native P2X3 receptors, trigeminal ganglia (TG) neurons; assay: α,β-meATP-induced currents in cultured trigeminal ganglia neurons; type: cell-based, rat; conditions: 1 μM, TG neurons
Procedure: (§1) Rat trigeminal (TG), nodose (NG) or dorsal root ganglion (DRG) neurons in culture were prepared as described previously (Sokolova et al., 2001; Simonetti et al., 2006). Neurons were plated on poly-L-lysine (0.2 mg/mL)-coated Petri dishes and cultured for 1 to 2 days under an atmosphere containing 5% CO2. Cells were used within 2 days of plating when they lacked processes. HEK293T cells were prepared as reported previously (Fabbretti et al., 2004; Sokolova et al., 2004) and transfected with rat full-length P2X3 cDNA subcloned into pIRES2-EGFP (Clontech, Mountain View, Calif., USA).
(§2) Trigeminal, nodose, DRG neurons or HEK cells were recorded in the whole-cell configuration while being continuously superfused (at 2 mL/min) with control solution containing (in mM): 152 NaCl, 5 KCl, 1 MgCl2, 2 CaCl2, 10 glucose, and 10 HEPES; pH was adjusted to 7.4 with NaOH and osmolarity was adjusted to 320 mOsM with glucose. […] Responses to selective P2X3 receptor agonist α,β-methylene-ATP (α,β-meATP; resistant to ectoATPase hydrolysis, Sigma-Aldrich) were measured using an EPC-9 amplifier and HEKA Patch Master software (HEKA Electronik, Germany). Cells were voltage-clamped at −70 mV. In most cells, series resistance was compensated by 80%. […]
(§3) The peak amplitudes of the responses were measured using HEKA Patch Master software. […]

[3] = biological target: T1, native P2X3 receptors, trigeminal ganglia (TG) neurons (Rattus norvegicus, UniProt P49654); assay: as above; type: cell-based; conditions: read-out: inhibition (suppression) of the peak current
T1 construct: Modulation of Native P2X3 Receptors in Rat Cultured Sensory Neurons; endogenous in cells; host or cells: primary cultured rat trigeminal ganglion and dorsal root ganglion neurons
T1 sequence (P49654 1-397): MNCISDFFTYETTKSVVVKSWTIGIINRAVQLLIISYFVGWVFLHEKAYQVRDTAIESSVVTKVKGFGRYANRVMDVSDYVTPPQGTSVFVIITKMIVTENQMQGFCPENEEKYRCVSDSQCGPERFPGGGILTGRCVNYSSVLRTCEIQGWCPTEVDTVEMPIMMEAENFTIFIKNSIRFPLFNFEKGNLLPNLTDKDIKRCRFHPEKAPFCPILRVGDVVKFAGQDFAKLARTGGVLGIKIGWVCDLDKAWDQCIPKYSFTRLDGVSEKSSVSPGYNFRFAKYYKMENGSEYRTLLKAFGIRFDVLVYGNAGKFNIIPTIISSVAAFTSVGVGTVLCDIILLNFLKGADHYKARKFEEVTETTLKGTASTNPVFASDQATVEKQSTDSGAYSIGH
Procedure: as §1, §2, §3

[4] = tested on: native P2X3 receptors, nodose ganglia (NG) neurons; assay: α,β-meATP-induced currents in cultured nodose ganglia neurons; type: cell-based, rat; conditions: 1 μM
Procedure: as §1, §2, §3

SMILES	effect on thermal hyperalgesia (PWL) ([1]; 100 μL, subcutaneous)	antinociceptive effect ([1]; sub-cutaneous, thermal hyperalgesia, PWL) [%]	inhibition of sustained residual component [2] [%]	inhibition at 1 µM [3] [%]	inhibition of sustained residual component [4] [%]	inhibition (suppression) of the peak current ([4]; 10 μM α,β-meATP) [%]
Nc1ncnc2c1ncn2[C@@H]1O[C@H](COP(=O)(O)OP(=O)(O)CP(=O)(O)OP(=O)(O)OC[C@H]2O[C@@H](n3cnc4c(N)ncnc43)C(O)C2O)C(O)C1O (stereo in doubt) [AppCH2ppA]	reduced thermal hyperalgesia	62				
Nc1ncnc2c1ncn2[C@@H]1O[C@H](COP(=O)(O)OP(=O)(O)NP(=O)(O)OP(=O)(O)OC[C@H]2O[C@@H](n3cnc4c(N)ncnc43)C(O)C2O)C(O)C1O (stereo in doubt) [AppNHppA]			15±6	80.3 ± 4.4	2±4	16.8±11.8
